Data: the supplement of paper PMC11061612

Assays:
[1] = system: MFE-296 (Endometrial Carcinoma); test: combination Emax (second highest fraction inhibited in the dose matrix, 72 h); higher = more inhibition; extreme values may be limits of the assay
Summary of the method: (§1)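 After 24 hours at 37°C and 5% CO2 in 1536-well plates, cells in DMEM/F12 or RPMI plus 10% FBS received two-drug dose matrices for 72 hours. Viability came from CellTiter-Glo 2.0 luminescence and was scaled as inhibition, anchored at 0 by vehicle wells and at 1 by blank wells. Combination Emax is taken as the second-highest inhibition in the matrix, and Bliss excess as the observed combination effect less EA + EB − EA·EB, with EA and EB the single-agent effects.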

[2] = system: KP-1N (Pancreatic Carcinoma); test: as above
Summary of the method: as §1

[3] = system: LU-135 (Small Cell Lung Carcinoma); test: as above
Summary of the method: as §1

[4] = system: Calu-3 (Lung Adenocarcinoma); test: as above
Summary of the method: as §1

[5] = system: B-CPAP (Thyroid Gland Carcinoma); test: as above
Summary of the method: as §1

[6] = system: COLO-205 (Colorectal Carcinoma); test: as above
Summary of the method: as §1

[7] = system: EC-GI-10 (Esophageal Squamous Cell Carcinoma); test: as above
Summary of the method: as §1

[8] = system: HuP-T4 (Pancreatic Carcinoma); test: as above
Summary of the method: as §1

[9] = system: AGS (Gastric Carcinoma); test: as above
Summary of the method: as §1

[10] = system: LS-180 (Colorectal Carcinoma); test: as above
Summary of the method: as §1

[11] = system: TE-15 (Esophageal Squamous Cell Carcinoma); test: as above
Summary of the method: as §1

[12] = system: SNU-5 (Gastric Carcinoma); test: as above
Summary of the method: as §1

[13] = system: MDA-MB-361 (Breast Carcinoma); test: as above
Summary of the method: as §1

[14] = system: NOS-1 (Osteosarcoma); test: as above
Summary of the method: as §1

[15] = system: MFE-296 (Endometrial Carcinoma); test: Bliss excess, mean over the matrix (fraction); higher = more synergy
Summary of the method: as §1

[16] = system: TE-9 (Esophageal Squamous Cell Carcinoma); test: as above
Summary of the method: as §1

[17] = system: KELLY (Neuroblastoma); test: as above
Summary of the method: as §1

[18] = system: SK-ES-1 (Ewing's Sarcoma); test: as above
Summary of the method: as §1

[19] = system: AGS (Gastric Carcinoma); test: as above
Summary of the method: as §1

[20] = system: MDA-MB-361 (Breast Carcinoma); test: as above
Summary of the method: as §1
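Wherever Bliss excess, mean over the matrix is given: after 72 h of two-drug dosing.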

SMILES	combination Emax [1]	combination Emax [2]	combination Emax [3]	combination Emax [4]	combination Emax [5]	combination Emax [6]	combination Emax [7]	combination Emax [8]	combination Emax [9]	combination Emax [10]	combination Emax [11]	combination Emax [12]	combination Emax [13]	combination Emax [14]	Bliss excess [15]	Bliss excess [16]	Bliss excess [17]	Bliss excess [18]	Bliss excess [19]	Bliss excess [20]
Cc1cc2ncnn2cc1Nc1ncc2c(n1)n(C1CCOCC1)c(=O)n2C [AZD7648] + CCN(CCO)CCCOc1ccc2c(Nc3cc(CC(=O)Nc4cccc(F)c4)[nH]n3)ncnc2c1 [AZD2811] (first compound max 10 µM, 7x7, partner max 1 µM)	0.147	0.134	0.893	0.235	0.283	0.897	0.44	0.342	0.529	0.388	0.283	0.354	0.61	0.232	-0.0112	-0.0002	0.0518	0.0065	0.0641	-0.0082
Cc1cc2ncnn2cc1Nc1ncc2c(n1)n(C1CCOCC1)c(=O)n2C [AZD7648] + CN(C)CCCOc1ccc(-c2ccc3ncc4c(c3c2)n(C2CCOCC2)c(=O)n4C)cn1 [AZD0156] (first compound max 10 µM, 7x7, partner max 1 µM)	0.147	0.188	0.172	0.215	0.286	0.39	0.161	0.261	0.397	0.358	0.236	0.376	0.565	0.225	0.0042	0.009	0.0637	0.0628	0.0178	-0.0656
Cc1cc2ncnn2cc1Nc1ncc2c(n1)n(C1CCOCC1)c(=O)n2C [AZD7648] + C[C@@H]1COCCN1C2=NC(=NC(=C2)C3(CC3)[S@](=N)(=O)C)C4=C5C=CNC5=NC=C4 [AZD6738] (first compound max 10 µM, 7x7, partner max 10 µM)	0.33	0.252	0.552	0.291	0.439	0.266	0.517	0.358	0.682	0.754	0.713	0.931	0.884	0.351	0.0193	0.0252	0.0663	0.0046	0.0015	-0.0263
Cc1cc2ncnn2cc1Nc1ncc2c(n1)n(C1CCOCC1)c(=O)n2C [AZD7648] + O=C(c1cc(Cc2n[nH]c(=O)c3ccccc23)ccc1F)N1CCN(C(=O)C2CC2)CC1 [Olaparib] (first compound max 10 µM, 7x7, partner max 10 µM)	0.0811	0.257	0.394	0.0691	0.265	0.0328	0.341	0.141	0.204	0.338	0.182	0.374	0.406	0.0915	-0.0255	-0.0264	-0.0241	0.0254	-0.007	-0.0204
NC1(C(=O)N[C@@H](CCO)c2ccc(Cl)cc2)CCN(c2ncnc3[nH]ccc23)CC1 [Capivasertib] + CC(=O)c1c(C)c2cnc(Nc3ccc(N4CCNCC4)cn3)nc2n(C2CCCC2)c1=O [Palbociclib] (first compound max 10 µM, 7x7, partner max 10 µM)	0.493	0.451	0.452	0.396	0.523	0.587	0.665	0.305	0.697	0.61	0.568	0.379	0.546	0.607	-0.0349	-0.0271	0.151	0.0865	0.0794	-0.0161
NC1(C(=O)N[C@@H](CCO)c2ccc(Cl)cc2)CCN(c2ncnc3[nH]ccc23)CC1 [Capivasertib] + CC(C)n1c(=O)n(C)c2cnc3cc(F)c(-c4ccc(OCCCN5CCCCC5)nc4)cc3c21 [AZD1390] (first compound max 10 µM, 7x7, partner max 0.3 µM)	0.488	0.254	0.267	0.288	0.261	0.416	0.574	0.128	0.444	0.33	0.387	0.43	0.44	0.322	-0.0695	-0.0431	-0.0322	0.0079	-0.108	-0.0555
NC1(C(=O)N[C@@H](CCO)c2ccc(Cl)cc2)CCN(c2ncnc3[nH]ccc23)CC1 [Capivasertib] + CCN(CCO)CCCOc1ccc2c(Nc3cc(CC(=O)Nc4cccc(F)c4)[nH]n3)ncnc2c1 [AZD2811] (first compound max 10 µM, 7x7, partner max 1 µM)	0.549	0.288	0.932	0.358	0.394	0.831	0.754	0.322	0.706	0.312	0.449	0.499	0.718	0.355	-0.0593	-0.0124	-0.0045	-0.0359	0.0129	0.0141
